# According to patent publication US20190151304A1, “METHODS AND PHARMACEUTICAL COMPOSITIONS FOR THE TREATMENT OF AUTOIMMUNE INFLAMMATORY” (INSERM (INSTITUT NATIONAL DE LA SANTÉ ET DE LA RECHERCJAE …, priority 2016, published 2019):
# No end group written: not given here.
# Columns and labels:
# [1] = system: cerulein-induced chronic pancreatitis mice; experiment: Chronic pancreatitis mice model induced by cerulein; type: in vivo
# Excerpt: FIG. 9. Pancreatic lymphocyte infiltration determined by immunostaining of CD45+ cells. Values were expressed as percentage of stained surface. **, p<0.01
# FIG. 10: Amylase activity in blood samples of control mice, cerulein-induced mice and cerulein-induced mice treated with OxA. *, p<0.05; ***, p<0.001 and NS, non significant.
# We have investigated the effect of orexin A (OxA) on chronic pancreatitis mice model induced by supraphysiologic doses of cerulein (3 intraperitoneal injections/week at 100 μg/kg). […] In mice treated by OxA (2 intraperitoneal injections/week at 1.40 μmol/Kg) the lesions induced by cerulein improved. OxA-treated mice had lower number of acino-ductal metaplasia.
# [2] = system: EAE mice; experiment: Chronic experimental autoimmune encephalomyelitis (EAE) induced with MOG35-55; type: in vivo, C57BL/6 mice; details: for Histopathological EAE score (spinal cord): 30 days post-immunization; for Regulatory T cell (Treg) proportion in draining lymph nodes: day 30 post-immunization, flow cytometry, versus PBS controls; for Clinical features of EAE (clinical score 0-5): orexin A 100 or 300 μg per mouse for 5 days, IP or retro-orbital, before onset or at moderate EAE score
# Protocol: EAE was induced with 100 μg of MOG35-55 (Myelin Oligodendrocyte Glycoprotein 35-55) as previously described (Proc Natl Acad Sci USA. 106(6):2012-7, 2009) to 9 week old female C57BL/6 wild-type (WT) mice (n=10/group). Panels show clinical signs of EAE scored daily in a blinded fashion for over 30 days on a scale of 0-5 as follows: 0, no detectable clinical signs, 1, waddling gait with limp tail, 2, ataxia with full paralysis of one limb, 3, full paralysis of two limbs, 4, full paralysis of two limbs with important weight loss (>20% of initial weight) and 5, moribund or dead. Then, mice were given:
# Panel A, intraperitoneally (IP) either PBS (group PBS IP), 100 μg of orexin A per mouse for 5 days on day 3 (=before the onset, group BOxA100 IP) or at a moderate EAE score (=1,5-2 for group OxA100 IP).
# Panel B, intraperitoneally either PBS (group PBS), 100 μg (group OxA100 IP) or 300 μg (group OxA300 IP) of orexin A per mouse for 5 days at a moderate EAE score (=1,5-2).
# Panel C, either PBS (group PBS), 300 μg of orexin A per mouse intraperitoneally (group OxA300 IP) or retro-orbitally (RO) (group OxA300 RO) for 5 days at a moderate EAE score (=1,5-2).
# The EAE score is shown as mean+/−SEM. *P<0.05 (nonparametric t-test, compared to PBS group).
# FIG. 5. […] 30 days post-immunization, mice (from the PBS, OxA300 RO, and OxA300 IP groups of FIG. 2, panel C) were sacrificed and spinal cords were harvested, fixed overnight in 4% paraformaldehyde and stored in 70% ethanol. Spinal cords were then embedded in paraffin and cut in […] section. After haematoxylin/eosin (to distinguish cell infiltration) and luxol fast blue (to label myelin) staining, photography was performed at ×1,25 and ×10 magnifications for the spinal cord sections of PBS, OxA300 RO and OxA300 IP mice. […] Histopathology grading was as follows: 0—normal appearance, 1—some infiltrated cells and low demyelination, 2—2 or 3 infiltrated areas and low demyelination, 3—numerous infiltrated areas and strong demyelination, 4—important cell infiltration throughout the tissue with strong demyelination. *P<0.05 (nonparametric t-test, compared to PBS group).
# FIG. 6. […] It was determined 30 days after EAE induction of PBS, OxA300 RO, and OxA300 IP mice (from FIG. 2, panel C) by real time RT-qPCR as previously described (Proc Natl Acad Sci USA. 106(6):2012-7, 2009). *P<0.05 (nonparametric t-test, compared to PBS group).
# FIG. 7. […] On day 30 post-immunization, draining lymph nodes were harvested from the naïve, PBS, OxA300 RO, and OxA300 IP groups (FIG. 2, panel C). Assessment by flow cytometry was performed by using the mouse regulatory T cell staining kit: lymph node Tregs were defined as […] and proliferative Tregs as CD4^+CD25^+Foxp3^+Ki67^+ cells.
# Histograms represent the mean of the percentage (left) and the total number (right) of Tregs and proliferative Tregs (Ki67^+Tregs) for each group. Bars represent the mean+/−SEM of 5 individual mice. *P<0.05 (non parametric t-test, compared to PBS group).
# Therefore, orexin A presents potent intrinsic anti-inflammatory properties, capable of modulating the Th/Treg homeostasis during an auto-immune response as aggressive as in a chronic EAE model.
# [3] = system: cytokines secretion in colon extracts; experiment: Cytokine assays in colon extracts of DSS-induced colitis mice; type: in vivo; details: OxA treatment
# Protocol: FIG. 3: OXA effects on cytokines secretion in DSS-induced colitis mice. Right, Colons of DSS untreated mice (white), DSS treated mice (gray) and DSS treated mice associated to OxA treatment (black) were resected after animal sacrifice. Then, protein extraction was performed by tissue disruption. Cytokines were determined using Cytokine CBA kits (see Material and Methods). Left, after colon resection, RNA were extracted from colonic tissue and qPCR was performed using specific oligonucleotides for IL8 homolog and IL1B.
# These observations are confirmed by histologic aspect of colon epithelium (histologic scoring by a GI pathologist). Thus, OxA has probably an anti-inflammatory effect on DSS-induced colitis. To confirm this hypothesis, we have investigated the anti-inflammatory effect of OxA treatment on cytokines secretion in colon extracts from DSS-treated mice. […] In contrast, OxA has no effect on INFγ, IL10, and IL12 cytokine secretion in colon extracts (FIG. 3).
# Cytokine assays: Mice were sacrificed and colons were resected. Proteins were extracted from colon by tissue disruption in PBS using Tissue Lyser (Qiagen, Courtaboeuf, France). Various cytokines (see FIG. 3) were determined using Cytokine CBA kits (BD Sciences, Le Pont de Claix, France).
# [4] = 30 days after EAE induction, RT-qPCR, OxA 300 μg RO or IP
substance,measurement,setting,value
"OxA: neuropeptide, endogenous ligand of OX1R and OX2R, with two disulphide bridges (QPLPDCCRQKTCSCRLYELLHGAGNHAAGILTL; disulfide (positions not given here); ends not checked; also: two disulphide bridges, pairing not given here; UniProt O43612 34-66, looked up)",Pancreatic lymphocyte infiltration (anti-CD45 immunohistochemistry),"[1]; OxA 1.40 μmol/Kg, quantitative imaging analysis, 18% in OxA-untreated mice",6 % of the pancreatic surface
same,Pancreatic fibrosis on Picrosirius staining,"[1]; OxA 1.40 μmol/Kg, quantitative imaging analysis, 40% in OxA-untreated mice",12 % of the pancreatic surface
same,Number of acino-ductal metaplasia,[1]; OxA 2 intraperitoneal injections/week at 1.40 μmol/Kg,lower number
same,Lesions induced by cerulein (histological analysis of the pancreas),"[1]; OxA 2 intraperitoneal injections/week at 1.40 μmol/Kg, 3 weeks of cerulein",improved
same,Amylase activity in blood samples,[1]; cerulein-induced mice treated with OxA,significantly reduced
same,Th1-specific (IFNγ) cytokine gene expression in the brain,[2]; [4],efficiently suppresses
same,Th17-specific (IL-17) cytokine gene expression in the brain,[2]; [4],efficiently suppresses
same,Histopathological EAE score (spinal cord),"[2]; OxA 300 μg RO or IP, listed as Orexin A",significantly decreases
same,Histopathological EAE score (spinal cord),"[2]; OxA 300 μg RO or IP, listed as orexin A",drastic reduction
same,Regulatory T cell (Treg) proportion in draining lymph nodes,[2]; listed as Orexin A,increased
same,Regulatory T cell (Treg) proportion in draining lymph nodes,[2]; listed as orexin A,increase
same,Clinical features of EAE (clinical score 0-5),[2]; listed as Orexin A,dramatically alleviate
same,Clinical features of EAE (clinical score 0-5),[2]; listed as orexin A,significantly ameliorated
same,Th1/Th17 pro-inflammatory responses in the CNS tissues,[2]; orexin A treated-mice versus PBS controls,drastic reduction
same,IL6 secretion in colon extracts,[3],reduces
same,IL10 secretion in colon extracts,[3],no effect
same,IL12 secretion in colon extracts,[3],no effect
same,INFγ secretion in colon extracts,[3],no effect
same,TNFα secretion in colon extracts,[3],reduces
same,IL1B in colon extracts,[3]; qPCR per FIG. 3,reduces
same,IL8 homolog in colon extracts,[3]; qPCR per FIG. 3,reduces
